Laboratory results reported in paper PMC4050313, “Panaxadiol and Panaxatriol Derivatives as Anti-Hepatitis B Virus Inhibitors” (Natural Products and Bioprospecting, 2014).

Tests used:
HBV DNA replication = experiment: Inhibition of HBV DNA replication, real-time PCR, HepG 2.2.15 cells; format: cell-based, Hepatitis B virus; conditions: Hepatitis B virus, HepG2.2.15; HepG 2.2.15 cells; means of two independent experiments
Description: (§1) Based on our previous description, inhibitory activity on HBV (HBsAg, HBeAg and HBV DNA) was evaluated. […] Cytotoxicity was assayed with a modified 3-(4,5-dimethylthiazole-2-yl)-2,5-diphenyltetrazolium bromide (MTT) method (Gibco Invitrogen, Carlsbad, CA, USA). The anti-HBV antigen secretion activities were determined by the enzyme linked immunosorbent assay (ELISA; Autobio Diagnostics Co., Ltd, China). A real-time PCR assay was applied to detect the inhibitory activity on HBV DNA replication.

HBsAg secretion = experiment: microbe, parasite or virus in culture; format: cell-based, Hepatitis B virus; conditions: Hepatitis B virus, HepG2.2.15, read-out: HBsAg IC50
Description: as §1

HBeAg secretion = experiment: microbe, parasite or virus in culture; format: cell-based, Hepatitis B virus; conditions: Hepatitis B virus, HepG2.2.15, read-out: HBeAg IC50
Description: as §1

[1] = Cytotoxicity, modified MTT method; format: cell-based; conditions: human; 50 % cytotoxicity concentration in HepG 2.2.15 cells; means of two independent experiments
Description: as §1

[2] = tested on: herpes simplex virus type I; parameters: method as in doi:10.3109/13880209509088139; conditions: cited from earlier work
[3] = tested on: liver injury induced by D-galactosamine and lipopolysaccharide; parameters: method as in PMID 12880307; conditions: liver injury induced by D-galactosamine and lipopolysaccharide in mice; cited from earlier work

SMILES	IC50 (HBV DNA replication)	IC50 (HBsAg secretion)	IC50 (HBeAg secretion)	CC50 [1]	ID50, reduced yield of herpes simplex virus type I [2]	hepatoprotective activity [3]
CC1(C)CCC[C@](C)([C@H]2CC[C@]3(C)[C@@H]2[C@H](O)C[C@@H]2[C@@]4(C)CC[C@H](O)C(C)(C)[C@@H]4[C@@H](O)C[C@]23C)O1 [PT, Panaxatriol]	669 µM	> 2420 µM	> 2420 µM	> 2420 µM	–	–
CC(C)=CCC[C@](C)(O)[C@H]1CC[C@]2(C)[C@@H]1[C@H](O)C[C@@H]1[C@@]3(C)CC[C@H](O[C@@H]4O[C@H](CO[C@@H]5OC[C@@H](O)[C@H](O)[C@H]5O)[C@@H](O)[C@H](O)[C@H]4O[C@@H]4O[C@H](CO)[C@@H](O)[C@H](O)[C@H]4O)C(C)(C)[C@@H]3CC[C@]12C [chikusetsusaponin III]	–	–	–	–	29 µM	–
C[C@H](Cn1cnc2c(N)ncnc21)OCP(=O)(O)O [Tf, Tenofovir, reference compound]	0.71 µM	1390 µM	1240 µM	> 1720 µM	–	–
CC(C)=CCC[C@](C)(O[C@@H]1O[C@H](CO[C@@H]2O[C@@H](CO)[C@H](O)[C@H]2O)[C@@H](O)[C@H](O)[C@H]1O)[C@H]1CC[C@]2(C)[C@@H]1[C@H](O)C[C@@H]1[C@@]3(C)CC[C@H](O[C@@H]4O[C@H](CO)[C@@H](O)[C@H](O)[C@H]4O[C@@H]4O[C@H](CO)[C@@H](O)[C@H](O)[C@H]4O)C(C)(C)[C@@H]3CC[C@]12C [Rc, ginsenoside Rc]	–	–	–	–	–	showed hepatoprotective activity
CC(C)=CCC[C@](C)(O[C@@H]1O[C@H](CO[C@@H]2OC[C@@H](O)[C@H](O)[C@H]2O)[C@@H](O)[C@H](O)[C@H]1O)[C@H]1CC[C@]2(C)[C@@H]1[C@H](O)C[C@@H]1[C@@]3(C)CC[C@H](O[C@@H]4O[C@H](CO)[C@@H](O)[C@H](O)[C@H]4O[C@@H]4O[C@H](CO)[C@@H](O)[C@H](O)[C@H]4O)C(C)(C)[C@@H]3CC[C@]12C [Rb3, ginsenoside Rb3]	–	–	–	–	–	showed hepatoprotective activity
CC1(C)CCC[C@](C)([C@H]2CC[C@]3(C)[C@@H]2[C@H](O)C[C@@H]2[C@@]4(C)CC[C@H](O)C(C)(C)[C@@H]4CC[C@]23C)O1 [PD, Panaxadiol]	148 µM	> 2280 µM	> 2280 µM	923 µM	–	–
CC(C)=CCC[C@](C)(O[C@@H]1O[C@H](CO[C@@H]2O[C@H](CO)[C@@H](O)[C@H](O)[C@H]2O)[C@@H](O)[C@H](O)[C@H]1O)[C@H]1CC[C@]2(C)[C@@H]1[C@H](O)C[C@@H]1[C@@]3(C)CC[C@H](O[C@@H]4O[C@H](CO)[C@@H](O)[C@H](O)[C@H]4O)C(C)(C)[C@@H]3CC[C@]12C [XVII, ginsenoside XVII]	–	–	–	–	–	showed hepatoprotective activity
